Activity calls are given as the source filed them. The rule behind the calls is not given here.
System: rodent carcinogenicity bioassays, tumor incidence
Test: CCRIS carcinogenicity studies
Outline: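 Archive of carcinogenicity, mutagenicity, tumor promotion and tumor inhibition results drawn from journals, NCI reports and other sources, expert-reviewed; covers 1985-2011 and is no longer updated.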

With `C[C@@]12CCC[C@H]1[C@@H]1CCc3cc(O)ccc3[C@H]1CC2` the carcinogen call (Species: HAMSTER, Strain/Sex: SYRIAN/MALE, Route: SUBCUTANEOUS IMPLANT, Dose: 0, 20 MG IN PELLETS IMPLANTED EVERY 2.5 MO FOR 9 MO (STUDY DURATION: 9 MO)) was “inactive; negative”.

In the case of `COCC(=O)N(c1c(C)cccc1C)C(C)C(=O)OC` (configuration not stated), the carcinogen call (Species: Mouse, Strain/Sex: ICI Alderly Park (Swiss strain origin)/Female (60/Group), Route: Oral, Dose: 0, 50, 250, 1250 ppm of 93.8-95.2% metalaxyl in diet for 104 wk, study duration 104 wk, Dose: 0, 50, 250, 1250 ppm of 93.8-95.2% metalaxyl in diet for 104 wk, study duration 104 wk) is reported as “inactive; negative”, the carcinogen call (Species: Mouse, Strain/Sex: ICI Alderly Park (Swiss strain origin)/Male (60/Group), Route: Oral, Dose: 0, 50, 250, 1250 ppm of 93.8-95.2% metalaxyl in diet for 104 wk, study duration 104 wk, Dose: 0, 50, 250, 1250 ppm of 93.8-95.2% metalaxyl in diet for 104 wk, study duration 104 wk) is reported as “inactive; negative” and the carcinogen call (Species: Rat, Strain/Sex: CD (Sprague-Dawley derived)/Female (70/Group), Route: Oral, Dose: 0, 50, 250, 1250 ppm of 93% metalaxyl in diet for 105 wk, study duration 105 wk, Dose: 0, 50, 250, 1250 ppm of 93% metalaxyl in diet for 105 wk, study duration 105 wk, Tumor Site: Type of Lesion: Thyroid: follicular cell adenoma) is reported as “active; positive”. The carcinogen call (Species: Rat, Strain/Sex: CD (Sprague-Dawley derived)/Male (70/Group), Route: Oral, Dose: 0, 50, 250, 1250 ppm of 93% metalaxyl in diet for 105 wk, study duration 105 wk, Dose: 0, 50, 250, 1250 ppm of 93% metalaxyl in diet for 105 wk, study duration 105 wk) was “inactive; negative”.

With `[CH3][Hg][O]C(C)=O` the carcinogen call (Species: MOUSE, Strain/Sex: SWISS/FEMALE, Route: ORAL, Dose: 0, 5 PPM (HG) IN DRINKING WATER FOR 70 D THEN 1 PPM (HG) FOR DURATION OF STUDY (STUDY DURATION: LIFE SPAN)) was “inactive; negative” and the carcinogen call (Species: MOUSE, Strain/Sex: SWISS/MALE, Route: ORAL, Dose: 0, 5 PPM (HG) IN DRINKING WATER FOR 70 D THEN 1 PPM (HG) FOR DURATION OF STUDY (STUDY DURATION: LIFE SPAN)) was “inactive; negative”.

`NC(N)=S` was tested, and the carcinogen call (Species: RAT, Route: ORAL, Tumor Site: Type of Lesion: LIVER, THYROID GLAND, EAR (ZYMBAL GLAND), Tumor Site: Type of Lesion: LIVER, THYROID GLAND, EAR (ZYMBAL GLAND)) was “active; positive”.

In the case of `O=[N+]([O-])c1ccc(/C=C/c2cnc(N(CO)CO)nn2)o1`, the carcinogen call (Species: RAT, Strain/Sex: WISTAR/MALE, Route: ORAL, Dose: 0, 350, 1750, 3500 PPM IN POWDERED BASAL DIET (STUDY DURATION: 35 WK), Dose: 0, 350, 1750, 3500 PPM IN POWDERED BASAL DIET (STUDY DURATION: 35 WK), Tumor Site: Type of Lesion: FORESTOMACH, SQUAMOUS CELL PAPILLOMA, DUODENUM: ADENOCARCINOMA, SMALL INTESTINE: ADENOCARCINOMA, Tumor Site: Type of Lesion: FORESTOMACH, SQUAMOUS CELL PAPILLOMA, DUODENUM: ADENOCARCINOMA, SMALL INTESTINE: ADENOCARCINOMA) is reported as “active; positive”.

With `O=CCC=O` the carcinogen call (Species: MOUSE, Strain/Sex: B6C3F1/FEMALE, Route: GAVAGE, Dose: 0, 60, 120 MG/KG IN DISTILLED WATER 5D/WK FOR 102 WK (STUDY DURATION: 105 WK), Dose: 0, 60, 120 MG/KG IN DISTILLED WATER 5D/WK FOR 102 WK (STUDY DURATION: 105 WK)) was “inactive; negative”, the carcinogen call (Species: MOUSE, Strain/Sex: B6C3F1/FEMALE, Route: INTRAPERITONEAL, Dose: 0, 1500 NMOL TOTAL DOSE, 1/3 AND 2/3 OF THE TOTAL DOSE ADMINISTERED AT 8 AND 15 DAYS OF AGE RESPECTIVELY, ANIMALS TERMIN) was “inactive; negative” and the carcinogen call (Species: MOUSE, Strain/Sex: B6C3F1/FEMALE, Route: INTRAPERITONEAL, Dose: 0, 3000 NMOL TOTAL DOSE, 1/3 AND 2/3 OF THE TOTAL DOSE ADMINISTERED AT 8 AND 15 DAYS OF AGE RESPECTIVELY, ANIMALS TERMIN) was “inactive; negative”. For the same compound, the carcinogen call (Species: MOUSE, Strain/Sex: B6C3F1/MALE, Route: GAVAGE, Dose: 0, 60, 120 MG/KG IN DISTILLED WATER 5D/WK FOR 102 WK (STUDY DURATION: 104 WK), Dose: 0, 60, 120 MG/KG IN DISTILLED WATER 5D/WK FOR 102 WK (STUDY DURATION: 104 WK)) was “inactive; negative”, the carcinogen call (Species: MOUSE, Strain/Sex: B6C3F1/MALE, Route: INTRAPERITONEAL, Dose: 0, 1500 NMOL TOTAL DOSE, 1/3 AND 2/3 OF THE TOTAL DOSE ADMINISTERED AT 8 AND 15 DAYS OF AGE RESPECTIVELY, ANIMALS TERMIN) was “inactive; negative” and the carcinogen call (Species: MOUSE, Strain/Sex: B6C3F1/MALE, Route: INTRAPERITONEAL, Dose: 0, 3000 NMOL TOTAL DOSE, 1/3 AND 2/3 OF THE TOTAL DOSE ADMINISTERED AT 8 AND 15 DAYS OF AGE RESPECTIVELY, ANIMALS TERMIN) was “inactive; negative”. The carcinogen call (Species: RAT, Strain/Sex: F344/FEMALE, Route: GAVAGE, Dose: 0, 50, 100 MG/KG IN DISTILLED WATER 5D/WK FOR 102 WK (STUDY DURATION: 105 WK), Dose: 0, 50, 100 MG/KG IN DISTILLED WATER 5D/WK FOR 102 WK (STUDY DURATION: 105 WK), Tumor Site: Type of Lesion: THYROID GLAND: FOLLICULAR CELL ADENOMA, THYROID GLAND: FOLLICULAR CELL ADENOMA OR CARCINOMA) was “active; positive” and the carcinogen call (Species: RAT, Strain/Sex: F344/MALE, Route: GAVAGE, Dose: 0, 50, 100 MG/KG IN DISTILLED WATER 5D/WK FOR 102 WK (STUDY DURATION: 104 WK), Dose: 0, 50, 100 MG/KG IN DISTILLED WATER 5D/WK FOR 102 WK (STUDY DURATION: 104 WK), Tumor Site: Type of Lesion: THYROID GLAND: FOLLICULAR CELL ADENOMA OR CARCINOMA, PANCREATIC ISLETS: ISLET CELL ADENOMA, PANCREATIC ISLETS: ISLET CEL, Tumor Site: Type of Lesion: THYROID GLAND: FOLLICULAR CELL ADENOMA OR CARCINOMA, PANCREATIC ISLETS: ISLET CELL ADENOMA, PANCREATIC ISLETS: ISLET CEL) was “active; positive”.

With `CC1COCCN1N=O` (configuration not stated) the carcinogen call (Species: RAT, Strain/Sex: F344/FEMALE, Route: ORAL, Dose: 45 MG/L IN DRINKING WATER FOR 26 WK, Tumor Site: Type of Lesion: LIVER: HEPATOCELLULAR CARCINOMA, HEMANGIOENDOTHELIAL SARCOMA, ESOPHAGUS: PAPILLOMA, CARCINOMA) was “active; positive”.

In the case of `Nc1ccc(Nc2ccccc2)cc1`, the carcinogen call (Species: MOUSE, Strain/Sex: B6C3F1/FEMALE, Route: ORAL, Dose: 0, 3672, 8170 PPM IN DIET, TWA, Dose: 0, 3672, 8170 PPM IN DIET, TWA) is reported as “inactive; negative”, the carcinogen call (Species: MOUSE, Strain/Sex: B6C3F1/MALE, Route: ORAL, Dose: 0, 2057, 4114 PPM IN DIET, TWA, Dose: 0, 2057, 4114 PPM IN DIET, TWA) is reported as “inactive; negative” and the carcinogen call (Species: RAT, Strain/Sex: F344/FEMALE, Route: ORAL, Dose: 0, 600, 1200 PPM IN DIET, Dose: 0, 600, 1200 PPM IN DIET) is reported as “inactive; negative”. The carcinogen call (Species: RAT, Strain/Sex: F344/MALE, Route: ORAL, Dose: 0, 600, 1200 PPM IN DIET, Dose: 0, 600, 1200 PPM IN DIET) was “inactive; negative”.

Source: PubChem BioAssay AID1259411 (Chemical Carcinogenesis Research Information System (CCRIS), 2018)
